Experiments:
mouse melanoma B16 [1] = assay: Example 7: chlorogenic acid-5-flurouracil combination against mouse melanoma B16; conditions: 5-flurouracil 500 mg/kg × 4, i.p.
Procedure: Next day after inoculation, animals were divided into groups, weighed, and administration of drugs started. Normal saline was administrated to mice in the negative control group by peritoneal injection at 0.2 ml/10 g, once a day.
Each group contains 12 animals. […] Tumor control rate (%) was calculated based on tumor weight.

mouse melanoma B16 [2] = assay: Example 6: chlorogenic acid-adriamycin or chlorogenic acid-cisplatin combination against mouse melanoma B16; format: in vivo
Text: (§1) Each group contains 15 animals.

mouse melanoma B16 [3] = assay: Example 5: chlorogenic acid-cyclophosphamide combination against mouse melanoma B16
Text: (§2) After inoculation, animals were divided into groups next day, weighed, and administration of drugs started.
as §1

mouse melanoma B16 [4] = assay: Example 4: tumor inhibitory rate of chlorogenic acid against mouse melanoma B16
Text: as §2
Each group includes 15 animals.

[5] = tested on: M1-type macrophage markers iNOS, IL-12, TNF-α and M2-type macrophage marker Arg; assay: Example 1: macrophage marker expression (flow cytometer, real-time fluorescent quantified PCR) in mouse melanoma B16 model; format: in vivo; conditions: 5, 10, 20 mg/kg i.p. once a day for 13 days
Procedure: Each group has 15 animals. […] After successful anesthesia of mice, bilateral eyeballs were removed and mice were killed by bleeding. […] Mice were placed in supine position, with segmental […] being toward up. 5 ml serum-free DMEM medium preheated at 37° C. was drawn out using 5 ml aseptic syringe, and middle-lower abdominal skin of mice was lifted with a tweezer, then 5 ml pre-suctioned serum-free DMEM medium preheated at 37° C. was injected to abdominal cavity (note: needlepoint being toward up, avoiding intestinal canal and fat). After that, bilateral peritoneal wall was gently kneaded and pressed for about 20-30 seconds, to make the intraperitoneal fluid fully flow. When collecting the peritoneal fluid, a little cut was opened on mouse hypogastric region using a surgical scissor, and skin was […] toward two sides, to thoroughly expose the peritoneum, then it was wiped and cleaned with 75% alcoholic cotton balls for sterilization. Further, about […] of little cut was opened on mouse peritoneum using ophthalmic scissors, and the peritoneal fluid was drawn back with 5 ml aseptic syringe (Try not to absorb intestinal canal and fat, otherwise, it is easy to cause contamination of fibroblasts), then transferred to 15.0 ml centrifuge tube and centrifugated at 1200 rpm/min for 5 min, to remove the supernatant fluid. The residue was re-suspended in sterile normal saline at […] and transferred into 1.5 ml centrifuge tube for use. […] During enzymatic digestion, centrifuge tubes were shaken every 10-15 minutes. When the fluid in centrifuge tubes became turbid, the piece of tumor tissue had already disintegrated and lost its massive shape. Once being shaken, the mass would become cell clumps or single cell, indicating the tumor tissue piece had already been fully digested. The enzymatic digestion time can be suitably shortened or elongated as the digestion degree of tumor tissue. […] Cells were re-suspended in sterile normal saline at […], and transferred to 1.5 ml centrifuge tubes for use. (3) Cell phenotype was detected by flow cytometer, and the corresponding marker of same sample was determined using real-time fluorescent quantified PCR. Results were shown in FIGS. 1-3, in which FIGS. 1-3 are respectively the detection result graphs of iNOS, IL-12, Arg expression in example 1. FIG. 4 is the detection result graph of TNF-α expression in example 1.

[6] = tested on: M1-type macrophage marker iNOS and M2-type macrophage marker Arg; assay: Example 2: maintenance of M1-type macrophages (LPS+INFγ) in mouse melanoma B16 model; format: in vivo; conditions: LPS + INFγ + chlorogenic acid 5, 10, 20 mg/kg, dose-dependent
Procedure: Each group includes 15 animals. After successful anesthesia of mice, bilateral eyeballs were removed and mice were killed by bleeding. […] Mice were placed in supine position, with segmental […] being toward up. 5 ml serum-free DMEM medium preheated at 37° C. was drawn out using 5 ml aseptic syringe, and middle-lower abdominal skin of mice was lifted with a tweezer, then 5 ml pre-suctioned serum-free DMEM medium preheated at 37° C. was injected to abdominal cavity (note: needlepoint being toward up, avoiding intestinal canal and fat). After that, bilateral peritoneal wall was gently kneaded and pressed for about 20-30 seconds, to make the intraperitoneal fluid fully flow. When collecting the peritoneal fluid, a little cut was opened on mouse hypogastric region using a surgical scissor, and skin was […] toward two sides, to thoroughly expose the peritoneum, then it was wiped and cleaned with 75% alcoholic cotton balls for sterilization. […] (3) Cell phenotype was detected by flow cytometer, and the corresponding marker of same sample was determined using real-time fluorescent quantified PCR. […]

[7] = tested on: M1-type and M2-type macrophages (iNOS, IL-10, Arg expression); assay: Example 3: transformation of M2-type to M1-type macrophages (IL-4) in mouse melanoma B16 model; format: in vivo; conditions: IL-4 + chlorogenic acid 5, 10, 20 mg/kg
Procedure: Each group includes 15 animals. After successful anesthesia of mice, bilateral eyeballs were removed and mice were killed by bleeding. […] Mice were placed in supine position, with segmental […] being toward up. 5 ml serum-free DMEM medium preheated at 37° C. was drawn out using 5 ml aseptic syringe, and middle-lower abdominal skin of mice was lifted with a tweezer, then 5 ml medium was injected to abdominal cavity (note: needlepoint being toward up, avoiding intestinal canal and fat). After that, bilateral peritoneal wall was gently kneaded and pressed for about 20-30 seconds, to make the intraperitoneal fluid fully flow. When collecting the peritoneal fluid, a little cut was opened on mouse hypogastric region using a surgical scissor, and skin was […] toward two sides, to thoroughly expose the peritoneum, then it was wiped and cleaned with 75% alcoholic cotton balls for sterilization. […] (3) Cell phenotype was detected by flow cytometer, and the corresponding marker of same sample was determined using real-time fluorescent quantified PCR. […]

[8] = dose-dependent, strongest at 20 mg/kg
[9] = cyclophosphamide 60 mg/kg × 1, i.p.

O=c1[nH]cc(F)c(=O)[nH]1 [5-flurouracil, 5-fluorouracil]
Tumor inhibitory rate (%) (mouse melanoma B16 [1]): 86.80%
Tumor weight (g) x ± SD (mouse melanoma B16 [1]): 0.30 ± 0.18 g
Body weight (g) x ± SD Initial (mouse melanoma B16 [1]; BALB/c mice, before dosing): 19.17 ± 0.72 g

COc1cccc2c1C(=O)c1c(O)c3c(c(O)c1C2=O)C[C@@](O)(C(=O)CO)C[C@@H]3O[C@H]1C[C@H](N)[C@H](O)[C@H](C)O1 [Adriamycin, adriamycin]
Body weight change rate (%) (mouse melanoma B16 [2]; adriamycin 3 mg/kg × 6, i.p.): 22.39%
Tumor inhibitory rate (%) (mouse melanoma B16 [2]; adriamycin 3 mg/kg × 6, i.p.): 58.89%
Tumor weight (g) x ± SD (mouse melanoma B16 [2]; adriamycin 3 mg/kg × 6, i.p.): 1.90 ± 0.56 g

O=C(/C=C/c1ccc(O)c(O)c1)O[C@@H]1C[C@](O)(C(=O)O)C[C@@H](O)[C@H]1O [Chlorogenic acid, 3-O-caffeoylquinic acid]
effect of combination on anti-tumor effects of cyclophosphamide (mouse melanoma B16 [3]; 20 mg/kg chlorogenic acid combined with cyclophosphamide 60 mg/kg): obviously improve anti-tumor effects of cyclophosphamide
Tumor inhibitory rate (%) (mouse melanoma B16 [4]; 5 mg/kg × 13, i.p. once a day): 17.23%
Tumor weight (g) x ± SD (mouse melanoma B16 [4]; 5 mg/kg × 13, i.p. once a day): 2.70 ± 0.76 g
Tumor inhibitory rate (%) (mouse melanoma B16 [4]; 10 mg/kg × 13, i.p. once a day): 43.87%
Tumor weight (g) x ± SD (mouse melanoma B16 [4]; 10 mg/kg × 13, i.p. once a day): 1.83 ± 0.86 g
Tumor inhibitory rate compared with cyclophosphamide (mouse melanoma B16 [4]; 20 mg/kg chlorogenic acid vs 60 mg/kg cyclophosphamide): close to that of cyclophosphamide
Tumor inhibitory rate (%) (mouse melanoma B16 [4]; 20 mg/kg × 13, i.p. once a day): 48.66%
Tumor weight (g) x ± SD (mouse melanoma B16 [4]; 20 mg/kg × 13, i.p. once a day): 1.68 ± 0.69 g
effect on growth of mouse melanoma B16 (mouse melanoma B16 [4]; intraperitoneal injection, 5-20 mg/kg × 13, certain dose-effect relationship): obviously inhibitory effect
expression of M1-type macrophage marker TNF-α (FIG. 4) [5]: promote the expression
expression of M1-type macrophage marker IL-12 (FIG. 2) [5, 8]: obviously promote the expression
expression of M1-type macrophage marker iNOS (FIG. 1) [5, 8]: obviously promote the expression
expression of M2-type macrophage marker Arg (FIG. 3) [5, 8]: obviously inhibit the expression
effect on the anti-tumor effect of adriamycin (mouse melanoma B16 [2]; 20 mg/kg chlorogenic acid + 3 mg/kg adriamycin): significantly potentialize
effect on the anti-tumor effect of cisplatin (mouse melanoma B16 [2]; 20 mg/kg chlorogenic acid + 3 mg/kg cisplatin): significantly potentialize
state of M2-type macrophage marker Arg (FIG. 6) [6]: relatively lower state
expression state of M1-type macrophage markers (iNOS, FIG. 5) ([6]; highest at 20 mg/kg): maintain the high expression state
growth of M1-type macrophage cells (FIG. 7) [7]: positive correlation with the dose
growth of M2-type macrophage cells (FIG. 8) [7]: negative correlation with the dose

N.N.[Cl][Pt][Cl] [Cisplatin, cisplatin]
Tumor inhibitory rate (%) (mouse melanoma B16 [2]; cisplatin 3 mg/kg × 6, i.p.): 65.97%
Tumor weight (g) x ± SD (mouse melanoma B16 [2]; cisplatin 3 mg/kg × 6, i.p.): 1.58 ± 0.69 g

O=P1(N(CCCl)CCCl)NCCCO1 (stereo not drawn) [cyclophosphamide, reference compound]
Tumor inhibitory rate (%) (mouse melanoma B16 [3]; [9]): 61.40%
Tumor weight (g) x ± SD (mouse melanoma B16 [3]; [9]): 1.46 ± 0.54 g
Body weight (g) x ± SD End (mouse melanoma B16 [3]; cyclophosphamide 60 mg/kg × 1, i.p., end of study): 22.58 ± 1.15 g
Tumor inhibitory rate (%) (mouse melanoma B16 [4]; [9]): 57.79%
Tumor weight (g) x ± SD (mouse melanoma B16 [4]; [9]): 1.38 ± 0.62 g
Body weight (g) x ± SD End (mouse melanoma B16 [4]; cyclophosphamide 60 mg/kg × 1, i.p., C57BL/6 mice, end of study): 23.01 ± 1.04 g
